# Tests used:
# [1] = system: patients with treatment-resistant PTSD, panic disorder, anxiety, depression and other conditions; experiment: Eight case reports: 7-keto DHEA in treatment-resistant patients (Example 3); type: in vivo, human
# [2] = system: male and female patients with PTSD, panic disorder, anxiety, depression; experiment: Sixteen case reports: oral 7-keto DHEA in PTSD, panic disorder, anxiety, depression and other conditions (Example 2); type: in vivo, human
# Description: In all the patient reports that follow, 7-keto DHEA was administered orally.
# [3] = system: women with severe chronic PTSD; experiment: Five case reports: 7-keto DHEA in women with treatment-resistant PTSD (Example 1); type: in vivo, human
# Description: The following case reports are of 5 women with severe chronic PTSD resulting from severe early abuse who continued to be highly symptomatic despite receiving extensive psychotherapy and years of psychopharmacologic treatment. […] The improvements in these symptoms not only were subjective and objective, but also manifested in significant and rapid benefits in vocational and interpersonal functioning.
# Ms. […] A. was so fearful and avoidant they would miss many sessions. They were so fragile and frightened they would frequently dissociate during sessions and forget what had been discussed. […] After the first week of 7-keto DHEA therapy, Ms. […] They reported feeling “more organized, more present” and being able to enjoy socializing “with a significant lessening of constant fear and self-criticism.”
# The outcome of this case series offers evidence that 7-keto DHEA is beneficial in treating patients with histories of severe early trauma and persistent refractory PTSD.
# [4] = system: trauma victims with PTSD or depression; experiment: Trauma victims with PTSD or depression, 7-keto DHEA vs placebo (Example 5); type: in vivo, human; conditions: 75 mg/day by mouth for 1 to 6 months
# healthy male volunteers = conditions: cited from earlier work
# trauma victims [5] = experiment: Trauma victims with or without PTSD or depression, stress-related physiologic measures (Example 6); type: in vivo, human; conditions: 25-75 mg/day by mouth for 1 to 6 months
# [6] = system: midlife major and minor depression or dysthymia; conditions: case reports; cited from earlier work
# trauma victims [7] = experiment: Trauma victims after a terrorist attack, 7-keto DHEA vs placebo (Example 4); type: in vivo, human; conditions: 50 or 75 mg/day by mouth for 2 to 6 weeks immediately following the incident
structure (smiles),measurement,setting,value
"CC(=O)OC1CC[C@@]2(C)C(=CC(=O)[C@@H]3[C@@H]2CC[C@]2(C)C(=O)CC[C@@H]32)C1 (some centres unmarked) [7-keto DHEA, 3-acetyl-7-oxo-dehydroepiandrosterone]",time the patient remained well,"[1]; Example 3 patient 7, 200 mg/day",9 months
same,time the patient remained well,[1]; Example 3 patients 3 and 6 on 7-keto DHEA (50; 100 mg/day),about 1 year
same,clinical response,"[1]; Patient 1, lifelong depression, PMDD, sexual PTSD, 75 mg/day",improved
same,clinical response,"[1]; Patient 2, lifelong anxiety, 4 years of depression, 50 mg/day",very effective
same,clinical response,"[1]; Patient 3, GAD, panic disorder, fibromyalgia/CFS, 50 mg/day",improvement in their symptoms
same,clinical response,"[1]; Patient 4, severe dissociative identity disorder, fibromyalgia, Bipolar Disorder, 200 mg/day",has been well for a year and is able to read and function
same,clinical response,"[1]; Patient 5, PTSD and bipolar 2 disorder, 50 mg/day in summer, 100 mg/day in winter",very effective
same,clinical response,"[1]; Patient 6, failed most antidepressants, atypical antipsychotics and ECT, 100 mg/day",tremendous positive effects in 1 week
same,clinical response after partial relapse,"[1]; Patient 6, dosage increased from 100 mg/day to 300 mg/day after stressful episode (breast cancer)",good results
same,clinical response,"[1]; Patient 7, lifelong depression, sexual PTSD, fibromyalgia/CFS, 200 mg/day",significant benefit
same,clinical response,"[2]; Patient 1, PTSD and Generalized Anxiety Disorder, 25 mg/day oral",less anxiety within 2 days
same,clinical response,"[2]; Patient 2, PTSD, chronic anxiety, Major depression, 50 mg/day oral",less anxiety and depression
same,clinical response,"[2]; Patient 3, Panic Disorder and Generalized Anxiety Disorder, 25 mg/day oral",less anxiety and panic
same,clinical response,"[2]; Patient 4, PTSD, Generalized Anxiety Disorder, Bipolar Depression, 25 mg/day oral",less anxious and depressed
same,clinical response,"[2]; Patient 5, Bipolar Depression and PTSD, 25 mg/day oral",less anxious and depressed
same,clinical response,"[2]; Patient 6, Tourette's Syndrome, chronic dysthymia, anxiety, 50 mg/day oral",calmer and in a better mood
same,clinical response,"[2]; Patient 7, Ankylosing Spondylitis, chronic pain, depression, 25 mg/day oral",calmer and less depressed
same,clinical response,"[2]; Patient 8, Dissociative Disorder, PTSD, Major Depression, Dependent Personality Disorder, 25 mg/day oral",less anxiety and dissociation
same,clinical response,"[2]; Patient 9, PTSD, Generalized Anxiety Disorder, Major Depression, 25 to 50 mg/day oral",less anxious and depressed
same,clinical response,"[2]; Patient 10, Bipolar Depression and PTSD, 25 mg/day oral",less anxious and depressed
same,clinical response,"[2]; Patient 11, Bipolar Depression and PTSD, 25 mg/day oral",less anxious
same,clinical response,"[2]; Patient 12, Bipolar Depression and PTSD, 25 mg/day oral",less anxious
same,clinical response,"[2]; Patient 13, PTSD and Major Depression, 50 mg/day oral",less depressed and anxious
same,clinical response,"[2]; Patient 14, Adult ADHD, Bereavement, PTSD, 25 mg/day oral",less irritable and anxious
same,clinical response,"[2]; Patient 15, Generalized Anxiety Disorder, 25 mg/day oral",lower anxiety and better mood
same,clinical response,"[2]; Patient 16, Generalized Anxiety Disorder and Fibromyalgia, 25 mg/day oral",lower anxiety and irritability
same,clinical response,"[3]; Case 1 (PTSD, bipolar II, dissociative identity disorder), 25 mg/day, after the first week, adjunct","stopped feeling so fearful, stopped dissociating, was much more communicative, and related better"
same,libido,"[3]; Case 1, 50 mg/day",went from having no libido to some libido
same,clinical response,"[3]; Case 1, after 3 weeks on 50 mg/day","stopped having nightmares, had much better concentration, functioned better at work and in social situations, had more stable mood"
same,clinical response,"[3]; Case 1, dosage increased to 50 mg daily",even further improvement
same,clinical response,"[3]; Case 2 (PTSD, bipolar disorder NOS), 25 mg daily, within a few days, adjunct",feeling much better
same,vocational functioning,"[3]; Case 2, 25 mg daily, within 2 weeks",felt calm and centered enough to return to work
same,clinical response,"[3]; Case 3 (PTSD, major depressive disorder), 25 mg daily, after 4 days, adjunct",felt better and was no longer getting anxious and overwhelmed by stressful events
same,nightmares and flashbacks,"[3]; Case 3, 25 mg daily, seven days after start",fewer nightmares and flashbacks
same,clinical response,"[3]; Case 4 (PTSD with dissociative identity disorder), 50 mg for 6 weeks, adjunct",some improvement in daily functioning and more positive affect
same,clinical response,"[3]; Case 4, 100 mg for 6 weeks",became much more social
same,clinical response,"[3]; Case 4, 150 mg daily",continued to improve
same,clinical response,"[3]; Case 5 (anxiety, PTSD, dissociative identity disorder, panic attacks), 25 mg daily raised to 50 and 75 mg daily, single agent",feeling calmer and being better able to deal with the stress
same,reduction in trauma and affective symptoms,"[3]; all 5 treatment-resistant women, after starting 7-keto DHEA",rapid and substantial reduction in their trauma and affective symptoms
same,negative side effects,[3]; the 5 patients on 7-keto DHEA,None of the 5 patients on 7-keto DHEA treatment reported any negative side effects
same,"PTSD, depression and stress-related emotional conditions compared to placebo",[4],reduction in their PTSD depression and stress-related emotional conditions
same,"differences in clinical laboratory values, minor adverse experiences, vital signs, blood chemistry, urinalysis between treatment and placebo groups",healthy male volunteers; healthy male volunteers,no differences
same,side effects or changes in clinical laboratory values,healthy male volunteers; study by Davidson et al.,no side effects or changes in clinical laboratory values
same,"stress-related physiologic measures (pain, headaches, hypertension, alcohol and substance abuse, work days lost to illness, cardiac events) compared to placebo",trauma victims [5]; patients with PTSD or depression,reduction in one or more stress-related physiologic measures
same,"stress-related physiologic measures (pain, headaches, hypertension, alcohol and substance abuse, work days lost to illness, cardiac events) compared to placebo",trauma victims [5]; patients without PTSD or depression,reduction in one or more stress-related physiologic measures
same,induced mania,[6],no case reports of induced mania
same,"PTSD, depression and stress-related emotional conditions compared to placebo",trauma victims [7],"reduction in PTSD, depression and stress-related emotional conditions"
